Laboratory results from patent US20250268921A1, “OPTHALMIC FORMULATIONS AND USES THEREOF” (TelomEYE Pharmaceutical Corporation, priority 2018, published 2025).
Entries after “also recorded” stand apart in the source; their conditions may differ.

Key:
corneal endothelium = experiment: Histopathology of corneal layer, treated rabbits; assay type: in vivo, rabbit
Procedure: Eye tissue was fixed with 4% formaldehyde and embedded in paraffin for the histopathological assessment and processed according to routine light microscope tissue processing methods. 5 μm tissue sections stained with Hematoxylin-Eosin (H&E) were examined and photographed by Leica image analyzing system (Leica, Germany). All specimens were evaluated individually by three histologists who were blinded to the drug type and the treatment times. Histopathology was also performed to evaluate the corneal opacity, neovascularization, inflammatory cell density, vessel size and edema. Moreover, lens structure, scleral, choroidal and macular changes were analyzed by histopathology.

[1] = test system: telomere length in corneal endothelial cells; experiment: Telomere length (TAT analysis) in corneal endothelial cells from treated rabbits; assay type: in vivo, rabbit; conditions: 6 months
Procedure: Samples were received in paraffin.
The sample is filtered to remove collagen residues. Telomere lengths were assessed using Life Length's.
All measurements were performed in quintuplicate.

[2] = Rabbit ocular pharmacokinetic model; assay type: in vivo
Procedure: At the end of the fifth day, blood, tear, cornea, anterior chamber fluid, iris and lens tissues were collected at 30, 60, 120, 240 and 480 minutes following the last administration of 4 μg/50 μl. […] According to the results of the drug analysis at the 30th minute, the highest drug concentrations of 215.56 ng in the corneal tissue, 4 ng in the anterior chamber and 14.12 ng in the iris were detected individually, proving that the drug passes into the corneal tissue after application to the corneal surface and reaches the intraocular tissues.

[3] = test system: corneal endothelial cells; experiment: Corneal endothelial cell density (CD) by specular microscopy, rabbits treated 6 months; assay type: in vivo, rabbit
Procedure: All experiments were designed and carried out in a randomized, double blind manner using placebos. Rabbits were housed for one week prior to the study, fed on standard laboratory food and allowed free access to water in a room at standard temperature and humidity conditions in a 12-h light/12-h dark cycle.
All analyses were carried out using GraphPad Prism 5.0 (GraphPad Software, San Diego, CA, USA). Differences were considered to be significant at a level of P: : : : 0.001.

telomerase [4] = biological target: T1, telomerase (Homo sapiens, UniProt O14746); experiment: TeloTAGGG Telomerase PCR ELISA assay in HCEC-B4G12; assay type: cell-based; conditions: for % Telomerase Activity ± SD: 30 hours
T1 construct: endogenous in cells; host or cells: HCEC-B4G12 (DSMZ ACC 647)
T1 sequence (O14746 whole entry): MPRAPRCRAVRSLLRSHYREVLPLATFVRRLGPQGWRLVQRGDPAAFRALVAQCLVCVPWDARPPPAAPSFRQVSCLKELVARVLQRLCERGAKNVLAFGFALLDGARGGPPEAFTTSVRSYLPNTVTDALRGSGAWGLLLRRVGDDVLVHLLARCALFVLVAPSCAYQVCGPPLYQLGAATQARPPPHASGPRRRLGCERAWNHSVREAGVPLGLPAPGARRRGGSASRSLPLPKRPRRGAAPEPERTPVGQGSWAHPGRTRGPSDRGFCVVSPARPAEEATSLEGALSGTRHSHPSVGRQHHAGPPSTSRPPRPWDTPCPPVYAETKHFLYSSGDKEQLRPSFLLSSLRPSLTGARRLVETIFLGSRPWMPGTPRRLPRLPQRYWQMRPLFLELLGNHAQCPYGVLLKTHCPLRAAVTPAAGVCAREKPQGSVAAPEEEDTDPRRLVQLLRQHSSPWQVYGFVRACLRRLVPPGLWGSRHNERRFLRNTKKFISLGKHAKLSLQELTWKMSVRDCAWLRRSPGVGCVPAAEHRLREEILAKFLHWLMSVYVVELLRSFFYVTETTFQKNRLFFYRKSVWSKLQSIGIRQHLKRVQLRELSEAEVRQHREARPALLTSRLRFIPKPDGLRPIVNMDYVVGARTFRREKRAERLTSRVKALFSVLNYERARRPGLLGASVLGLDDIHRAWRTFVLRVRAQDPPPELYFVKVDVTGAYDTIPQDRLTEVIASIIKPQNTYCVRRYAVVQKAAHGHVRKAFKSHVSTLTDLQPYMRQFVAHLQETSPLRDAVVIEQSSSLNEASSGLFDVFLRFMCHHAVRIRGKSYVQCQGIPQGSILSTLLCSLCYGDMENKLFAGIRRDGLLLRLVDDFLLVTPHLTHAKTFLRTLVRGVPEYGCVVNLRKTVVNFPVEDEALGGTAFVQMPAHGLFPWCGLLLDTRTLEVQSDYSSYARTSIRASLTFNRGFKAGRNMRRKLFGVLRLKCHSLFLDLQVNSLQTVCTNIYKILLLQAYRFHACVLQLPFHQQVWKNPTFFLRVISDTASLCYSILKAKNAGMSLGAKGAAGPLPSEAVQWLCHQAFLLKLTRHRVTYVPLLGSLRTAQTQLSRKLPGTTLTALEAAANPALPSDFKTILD
Procedure: TeloTAGGG™ Telomerase PCR ELISA assay was performed as described by manufacturer (Sigma-Aldrich).

[5] = test system: telomere length in Corneal Endothelial Cells (CEC); experiment: Telomere length of corneal endothelial cells, treated versus untreated eyes; assay type: in vivo, rabbit; conditions: six months treatment
Procedure: IG. 18 illustrates a graph showing percentage of telomere length increases in treated eyes (L) versus control (untreated eyes, R), with increasing dosages of telomerase activator. […] (Cy3=Fluorescence signal of telomere probe, Hoescht=fluorescence of the nuclei, Average R=Average of the control eye).
To determine the mechanism by which treatment with TAED017 prevents Corneal Endothelial Cell (CEC) attrition, telomere lengths from CECs of both treated and untreated eyes were measured and compared.
We then evaluated whether the observed effect of telomere lengthening in CECs also occurred in other ocular tissues. Rabbit eyes were treated for six months with TAED017, (one eye of each rabbit was treated while the other eye remained untreated, as a control group).

[6] = test system: human corneal epithelial cells; experiment: Morphologic evaluation and cell viability, cornea epithelial cells; assay type: cell-based
telomerase [7] = biological target: T1, telomerase; experiment: Telomerase activity of cornea endothelial and epithelial cells; assay type: cell-based
[8] = test system: human corneal endothelial cells; experiment: Morphologic evaluation and cell viability, cornea endothelial cells; assay type: cell-based
Procedure: In the morphologic evaluation, the cells at different time periods (1 h, 4 h, 24 h) were observed following different concentrations of drug administration.

[9] = test system: 3D organotypic corneal barrier; experiment: 3D organotypic corneal barrier passage (LC-MS/MS); assay type: in vitro ADME; conditions: repeated drug administration
cornea endothelial cells = experiment: Specular microscopy cornea endothelial cell count, TAED017 eye drops 6 months; assay type: in vivo, rabbit; conditions: for cell count, treatment vs control: 2nd and 5th months
From the text: 16-month-old male New Zealand rabbits were used in the study. […] When determining the starting age of rabbits and the duration of eye drop application (6 months), 16 months was chosen to correspond to adult human age, and the study period of 6 months was modeled as the period in which New Zealand rabbits aged 7.91 years (22.75 days for adult New Zealand rabbits, corresponding to 1 year for human age).
In FIGS. 12-15, data are shown as mean±standard error. The statistical evaluations are based on CD (cornea endothelia cell density) values. All CD values were corrected to the baseline measurement (month 0) of the respective rabbit and this correction was made as a percentage [(CD value/CD baseline value)*100]. GraphPad Prism 8.0.2 software was used for all statistical analyses and visualizations. The treatment of the rabbits at the respective dose was compared between the left (TAED017 treatment) and right (non-treated control) eye, both temporally and time and side dependent. For all analyses, “2-way ANOVA test for repeated measures” was used. For data sets with missing data, this analysis was set as “mixed-effect analysis” by the program. “Tukey” and “sidak” tests were used for posthoc analyses. The p values for these tests are adjusted p values.

[10] = test system: telomerase reverse transcriptase (TERT); experiment: TERT immunohistochemistry of eye tissues; assay type: in vivo, rabbit
From the text: This was characterized by weak telomerase activity in the endothelial layer with an expression of limited number of endothelial cells.

[11] = cornea endothelial and epithelial cells, 48 hours

## CC(C)(O)[C@@H]1CC[C@](C)([C@H]2[C@@H](O)C[C@@]3(C)[C@@H]4C[C@H](O)[C@H]5C(C)(C)[C@@H](O)CC[C@@]56C[C@@]46CC[C@]23C)O1 [cycloastragenol, Cycloastragenol]
Corneal endothelium; Group B, 25 ng/ml, compared to group A
  histopathological finding, corneal endothelium: cell losses were observed in very few areas
Corneal endothelium; Group C, 100 ng/ml
  histopathological finding, corneal endothelium: configuration and number of cells were found to be close to Group NC
Corneal endothelium; Group D, 500 ng/ml, compared to Group B and Group C
  histopathological finding, corneal endothelium: more hypertrophic and place cell losses
[1]; GROUP B, 25 ng/ml
  2am Percentile Length: 6,968 Base Pairs
  Median Length: 11,431 Base Pairs
  Telomeres <3 Kbp: 3.7%
[1]; GROUP C, 100 ng/ml
  2am Percentile Length: 7,374 Base Pairs
  Median Length: 11,543 Base Pairs
  Telomeres <3 Kbp: 3.1%
[1]; GROUP D, 500 ng/ml
  2am Percentile Length: 7,113 Base Pairs
  Median Length: 11,552 Base Pairs
  Telomeres <3 Kbp: 3.6%
[2]; zero hour, after 5 days of eye drops, without last administration
  concentration in eye tissues: below 1 ng
[3]; Group B, 25 ng/ml, month 0
  Cell Density (CD) of cornea layer endothelial cells: 2531.00
[3]; Group B, 25 ng/ml, month 1
  Cell Density (CD) of cornea layer endothelial cells: 2612.38
  change in cell density versus month 0: 3%
  higher cell density than negative control group: about 4%
  higher cell density than placebo group: about 4%
[3]; Group B, 25 ng/ml, month 3
  Cell Density (CD) of cornea layer endothelial cells: 2604.50
  change in cell density versus month 0: 3%
  higher cell density than negative control group: ~18%
  higher cell density than placebo group: ~18%
[3]; Group B, 25 ng/ml, month 6
  Cell Density (CD) of cornea layer endothelial cells: 2545.88
  change in cell density versus month 0: 4%
  higher cell density than negative control group: ~19%
  higher cell density than placebo group: ~20%
[3]; Group C, 100 ng/ml, month 0
  Cell Density (CD) of cornea layer endothelial cells: 2689.88
[3]; Group C, 100 ng/ml, month 1
  Cell Density (CD) of cornea layer endothelial cells: 2741.13
[3]; Group C, 100 ng/ml, month 3
  Cell Density (CD) of cornea layer endothelial cells: 2453.88
[3]; Group C, 100 ng/ml, month 6
  Cell Density (CD) of cornea layer endothelial cells: 2472.38
[3]; Group D, 500 ng/ml, month 0
  Cell Density (CD) of cornea layer endothelial cells: 2875.13
[3]; Group D, 500 ng/ml, month 1
  Cell Density (CD) of cornea layer endothelial cells: 2835.38
[3]; Group D, 500 ng/ml, month 3
  Cell Density (CD) of cornea layer endothelial cells: 2498.50
[3]; Group D, 500 ng/ml, month 6
  Cell Density (CD) of cornea layer endothelial cells: 2488.88
Telomerase [4]; 3.8 ng/ML
  % Telomerase Activity ± SD: 108 ± 5.27%
Telomerase [4]; 7.8 ng/ML
  % Telomerase Activity ± SD: 114.42 ± 2.79%
Telomerase [4]; 15.6 ng/ML
  % Telomerase Activity ± SD: 148.94 ± 49.54%
Telomerase [4]; 125 ng/ML
  % Telomerase Activity ± SD: 43.14 ± 0.24%
Telomerase [4]; 250 ng/ML
  % Telomerase Activity ± SD: 46.28 ± 2.02%
Telomerase [4]; 500 ng/ML
  % Telomerase Activity ± SD: 54.38 ± 2.78%
Telomerase [4]; 10000 ng/ML, placebo (1% DMSO) = 100%
  % Telomerase Activity ± SD: 74.0 ± 10.45%
Telomerase [4]; 3.8-62.5 ng/ml
  telomerase activity compared with negative control: higher telomerase activity than negative control
Telomerase [4]; 62.5-31.25 ng/ml
  telomerase activity, times higher than the negative control: 7-10 times
Telomerase [4]; 125-1000 ng/ml
  telomerase activity compared with negative control: lower than negative control
Telomerase [4]; HCEC-B4G12
  concentration giving the highest activity of telomerase: 62.5 ng/mL

## CC(C)(O)[C@@H]1CC[C@](C)([C@H]2[C@@H](O)C[C@@]3(C)[C@@H]4C[C@H](O)[C@H]5C(C)(C)[C@@H](O)CC[C@@]56C[C@@]46CC[C@]23C)O1 [TAED017, Cycloastragenol]
[5]
  CEC telomere length, treated vs untreated eyes: significant increase; also recorded: longer than those from untreated eyes
[6]; after 24 hours
  concentration of first degenerative changes: 320 µM
[6]; cornea epithelial cells, read-out: IC50 dose (cell viability assays)
  IC50: 740 µM
[6]; epithelial cells
  concentrations without morphological degenerative changes (safe): ≤ 160 μM
[2]; 4 μg/50 μl twice a day 5 days, after last administration
  Tmax, all eye tissues: 30 min
[2]; 30 and 60 minutes
  drug concentration in tears: ≤ 3 ng
[2]; 30th minute, 4 μg/50 μl
  highest drug concentration, anterior chamber: 4 ng
  highest drug concentration, corneal tissue: 215.56 ng
  highest drug concentration, iris: 14.12 ng
[2]; proportion of applied drug
  highest level of drug absorbed to the corneal surface: 5.39%
  proportion of the drug that passed into the eye, iris tissue: 0.35%
Telomerase [7]; [11]
  concentrations at which telomerase activity reached its highest level: 20 μM, 40 μM and 100 μM
  starting concentration of telomerase activity increase: 2 µM
  telomerase activity after 100 μM concentration: no higher telomerase activity
Telomerase [7]; human corneal epithelial cells vs HCEC B4-G12
  TAED017 activity, epithelial versus endothelial cells: higher in corneal epithelial cells
Telomerase [7]; printed in brackets after 2 μM
  starting concentration of telomerase activity increase: 100 ng/mL
[8]; 40 μM and 80 μM, up to 24 hours
  morphologic change: no significant changes
[8]; 320 μM, 640 μM and 960 μM, after 1 h and 4 h
  apoptotic cells in 20× microscope field: 1-5
[8]; 320 μM, 640 μM and 960 μM, as early as 5 minutes
  morphologic change: cell-cell connections were disrupted and the cells became round
[8]; cornea endothelial cells, read-out: IC50 dose (cell viability assays)
  IC50: 220 µM
[8]; corneal endothelial cells, in vitro
  doses that appear safe: ≤ 80 µM
[8]; doses above 80 μM, prolonged drug exposure
  cell damage: significant apoptosis and lysis
[8]; high concentrations (e.g. 160 μM and 320 μM)
  apoptosis in HCECs: significantly induces apoptosis
[9]; 48th hour
  amount crossing the corneal barrier, highest: 1.35%
[9]; 72nd hour
  amount crossing the corneal barrier, highest: 1.89%
Cornea endothelial cells; 4 μg/50 μl
  cell count, difference between months in the treated eye: no significant difference between the times
  cell count, treatment vs control: no statistically significant difference
Cornea endothelial cells; 4 μg/50 μl twice a day, two way ANOVA
  cell count, overall comparison treated left vs untreated right eye: no statistically significant difference
Cornea endothelial cells; 8 μg/50 μl
  cell count, treatment vs control: no difference
Cornea endothelial cells; 8 μg/50 μl, mixed-effects analysis
  cell count, overall comparison treated left vs untreated right eye: statistically significant difference
Cornea endothelial cells; 12 μg/50 μl
  cell count, difference between months in the treated eye: statistically significant difference between the 2nd and 6th month
  cell count, treatment vs control: no difference
Cornea endothelial cells; 12 μg/50 μl, mixed-effects analysis
  cell count, overall comparison treated left vs untreated right eye: statistically significant difference
[10]; 80 μg/ml
  TERT immunoreactivity in cornea and iris, rank among dose groups: lowest Tert immunoreactivity; also recorded: lowest levels
  TERT immunostaining in the ciliary processes of iris tissue: Prominent and dense tert antigen immunostaining
[10]; 160 μg and 240 μg/ml
  TERT staining in corneal endothelial cells: continuous layer staining
[10]; 160 μg/ml and 240 μg/ml
  TERT immunostaining in the ciliar processes: diffuse and very intense immunopositivity
[10]; 240 μg/ml
  TERT immunoreactivity in cornea and iris, rank among dose groups: highest reactivity; also recorded: highest levels
[10]; 80-240 μg/ml eye drops
  TERT expression in cornea and iris, treated left eyes vs untreated: significantly higher expression; also recorded: significantly elevated
[10]; treatment groups
  TERT activity in the iris and choroidea vs untreated: significantly higher
